Reference: patent US20190269132A1 (ROHM AND HAAS COMPANY, priority 2016, published 2019)

System: Chlorella sp. ATCC 7516
Test: Algal efficacy testing of dry paint films (modified ASTM 5589, 6-well plates)
Type: cell-based
Protocol: These paints were then diluted with a biocide free acrylic/silicone based paint and mixed to prepare targeted concentrations of biocide combinations for the testing. The total biocides concentrations obtained were 125, 250, 500, 1000, 2000 and 5000 ppm. After biocides addition or dilution, the paints were mixed 90 seconds with the horse power shaker (AXEL 75M3372/Agitateur SO-10MI) until uniformity was achieved. […] After one day, the paints were applied to Schleicher & Schuell filter paper at 280 μm wet film thickness and dried for 3 days at room temperature avoiding direct exposure to sunlight. Square discs (1.8 cm×1.8 cm) were cut out from each panel and were used as the substrate for algal efficacy tests. This sample size allowed for an agar border when the sample disc was placed into the well of the test plate.
Algal efficacy was tested according to modified ASTM 5589 which is a standard accelerated test method for determining resistance of various coatings (including paints) to algal defacement. To accommodate for high-throughput screening, this method was scaled down from petri plates to 6-well plates. Bold Modified Basal Freshwater Nutrient Solution was used as growth medium for the algal culture and Bold's agar was used for the efficacy testing. A single coupon was placed with a pair of sterile forceps at the center of the agar plug (on top) with the painted surface facing upwards. The algal inoculum was prepared by diluting an exponentially growing culture of Chlorella sp. to 1×10^6 cfu/ml.
Each well that contains a tested coupon was inoculated with 1750 μl of algal suspension (1×10^6 cfu/ml) making sure that the whole surface (paint film as well as the agar surrounding it) was evenly covered. The plates were incubated at room temp (21° C.-25° C.) with cyclic exposure to 14 hours fluorescent light followed by 10 hours darkness, for a period of three weeks.
At the end of the incubation period the samples were scored for percent inhibition regarding color intensity compared to the blank sample
The SI is calculated based on F. C. Kull et. […]

Row | Compound | inhibition at 5000 ppm (504 h, Chlorella, total conc 5000 ppm in paint, three weeks, colour intensity vs blank) | Total conc, ppm (lowest total biocide concentration in paint reaching pass level of 75% inhibition) (Chlorella sp., acrylic/silicone paint film on filter paper, three weeks incubation, pass level ≥75% inhibition) | % inhibition (Chlorella, total conc 1′000 ppm in paint, three weeks, colour intensity vs blank)
1 | O=c1[nH]sc2ccccc12 [BIT, 1,2-benzisothiazol-3(2H)-one] | 95% | 5000 ppm | –
2 | O=c1[nH]c2c(c(=O)n1C1CCCCC1)CCC2 [LENACIL, 3-Cyclohexyl-6,7-dihydro-1H-cyclopentapyrimidine-2,4-(3H,5H)-dione] | – | – | 90%
